Measured values reported in patent US20240116926A1, “HETEROAROMATIC COMPOUNDS” (AstraZeneca AB, priority 2022, published 2024).
In brackets after ≈: the same amount, converted by molar mass.

What was measured:
[1] = Solubility (thermodynamic, shake-flask); type: physicochemical; conditions: thermodynamic from solid; aqueous phosphate buffer (pH 7.4), 24 hours at 25° C.
Protocol: The thermodynamic solubility of a research compound is measured under standard conditions. It is a shake-flask approach that uses 10 mM DMSO solutions which are supplied from the Compound Managements liquid store and is a high throughput method. The dried compounds are equilibrated in an aqueous phosphate buffer (pH 7.4) for 24 hours at 25° C., the portion with the dissolved compound is then separated from the remains. The solutions are analyzed and quantified using UPLC/MS/MS, QC-samples are incorporated in each assay-run to ensure the quality of the assay.

MCF7-Tead cell line = experiment: TEAD reporter assay; type: cell-based; conditions: MCF7-Tead cells, luciferase activity after 24 hours
Protocol: (§1) MCF7-Tead cell line was obtained from BPS BIOSCIENCE (catalog number 60618) and was maintained in DMEM containing 10% fetal calf serum, 2 mM glutamine, and 400 μg/ml G418. Cells were grown in a humidified incubator at 37° C. with 5% CO2. Cells were distributed to flat bottom white polystyrene TC treated 384 well plates at a density of 3,500 cells/well in 30 uL. Cells were incubated for 24 hours at 37° C. with 5% CO2. Cells were acoustically dosed using an Echo 555, with compounds serially diluted in 100% DMSO. Plates were incubated for an additional 24 hours. Cells were examined for luciferase activity through the addition of 30 μL Bright-Glo luciferase (Promega catalog number E2620). Plates were incubated for 10 minutes at room temperature and luminescence was read using Tecan plate reader. The data obtained with each compound was exported to […] software to perform curve fitting analysis.

TEAD4(217-434) = TEAD4(217-434) (Homo sapiens (Human), UniProt Q15561); experiment: TEAD4 FRET; type: binding; conditions: depalmitoylated, biotinylated TEAD4(217-434), FAM labelled Probe A, 120 min at 25° C.
Protocol: Compounds were dosed with a final DMSO concentration of 1% (v/v). Compound IC50 values were assessed following a 10-point, half-log10 dilution schema starting at 100 μM compound concentration. Specifically, human TEAD protein from TEAD4(217-434) was cloned into an overexpression vector, expressed as an N-terminal HIS-TEV-Avi-tagged fusion protein in E coli, and subsequently purified, then protein was chemically depalmitoylated & biotinylated. The assay was performed in 384-well LV plates (384-well black, medium binding, PS, HIBASE, GREINER #784076) and run in the presence and absence of the compound of interest. Each well of 5 μL assay mixture contained 10 mM Tris-HCl (pH 7.5), 100 mM NaCl, 0.05 mM EDTA, 1 mM TECP, 1% DMSO, 0.03% Pluronic acid F127, 20 nM dePal Avi TEAD4 (217-434)-depalmitoylated & biotinylated protein, 0.8 nM Streptavidin Terbium cryptate (CisBio #610SATLB), 625 nM FAM labelled Probe A. Reactions were incubated at 25° C. for 120 min before reading on a PHERASTAR FSX Plate Reader (337 520 490 HTRF module required) (Supplier BMP).
The data file from the PHERAstar FSX contains both the acceptor (520 nm) and donor channels (490 nm) (“Channel A”=acceptor channel (520 nm), “Channel B”=donor channel (490 nm)). The ratio of the donor and acceptor (Channel A/Channel B) is calculated within Genedata Assay Analyzer.
Probe A is 3′,6′-dihydroxy-3-oxo-N-{8-[2-(5-{2-[4-(trifluoromethyl)anilino]phenyl}-2H-tetrazol-2-yl)acetamido]octyl}-3H-spiro[[2]benzofuran-1,9′-xanthene]-5-carboxamide;

[2] = test system: MCF7-Luciferase cell line; experiment: Control reporter (MCF7-Luciferase); type: cell-based; conditions: MCF7-Luciferase cells, luciferase activity after 24 hours
Protocol: (iii) Control Reporter (MCF7-Luciferase)
as §1, with “MCF7-Luciferase” for “MCF7-Tead”, “BPS BIOSCIENCE” left out, “SC050-L)” for “60618)”, “glutamine.” for “glutamine, and 400 μg/ml G418.”, “μL.” for “uL.”

Sequence of TEAD4(217-434) (Q15561 217-434): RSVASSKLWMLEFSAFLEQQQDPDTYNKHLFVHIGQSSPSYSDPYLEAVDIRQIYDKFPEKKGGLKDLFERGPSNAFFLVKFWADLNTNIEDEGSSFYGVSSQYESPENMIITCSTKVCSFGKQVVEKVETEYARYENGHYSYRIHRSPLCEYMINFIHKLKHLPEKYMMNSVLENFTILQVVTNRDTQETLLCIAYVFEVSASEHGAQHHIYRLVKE

Row | Compound | solubility at 24 h [1] [µM] | IC50 (MCF7-Tead cell line) [nM] | IC50 (TEAD4(217-434)) [nM] | IC50 [2] [nM]
1 | C=CC(=O)N1C[C@H](F)[C@H](Nc2nnc(-c3ccc(C(F)(F)F)cc3)c3ccccc23)C1 [Example 10, 1-((3S,4R)-3-fluoro-4-((4-(4-(trifluoromethyl)phenyl)phthalazin-1-yl)amino)pyrrolidin-1-yl)prop-2-en-1-one] | 67 (≈ 28.8 µg/mL) | 15 | 32 | 15600
2 | C=CC(=O)N1C[C@@H](F)[C@H](Nc2nnc(-c3ccc(C(F)(F)F)cc3)c3ncccc23)C1 [Example 3, 1-((3R,4R)-3-fluoro-4-((8-(4-(trifluoromethyl)phenyl)pyrido[2,3-d]pyridazin-5-yl)amino)pyrrolidin-1-yl)prop-2-en-1-one] | 10 (≈ 4.31 µg/mL) | 67 | 93 | 27300
3 | C=CC(=O)N1C[C@H](F)[C@H](Nc2ncc(-c3ccc(C(F)(F)F)cn3)c3ncccc23)C1 [Example 36, 1-((3S,4R)-3-fluoro-4-((8-(5-(trifluoromethyl)pyridin-2-yl)-1,6-naphthyridin-5-yl)amino)pyrrolidin-1-yl)prop-2-en-1-one] | 82 (≈ 35.4 µg/mL) | 11 | – | > 31700
4 | C=CC(=O)N1C[C@@H](F)[C@H](Nc2nnc(-c3ccc(C(F)(F)F)cc3)c3cccnc23)C1 [Example 4, 1-((3R,4R)-3-fluoro-4-((5-(4-(trifluoromethyl)phenyl)pyrido[2,3-d]pyridazin-8-yl)amino)pyrrolidin-1-yl)prop-2-en-1-one] | 230 (≈ 99.2 µg/mL) | 192 | 410 | 26000
5 | C=CC(=O)N1CC(Nc2nc(-c3ccc(C(F)(F)F)cc3)nc3ccccc23)C1 [Comparative Example B, 1-[3-({2-[4-(trifluoromethyl)phenyl]-4-quinazolinyl}amino)-1-azetidinyl]-2-propen-1-one, reference compound] | 2 (≈ 0.797 µg/mL) | 161 | 30 | > 31700
6 | C=CC(=O)N1C[C@H](Nc2nnc(-c3ccc(C(F)(F)F)cc3)c3ccccc23)[C@@H](C(N)=O)C1 (single isomer, unassigned; enantiomer 1) [Example 31, enantiomer 1 of trans-1-acryloyl-4-((4-(4-(trifluoromethyl)phenyl)phthalazin-1-yl)amino)pyrrolidine-3-carboxamide] | 534 (≈ 243 µg/mL) | 58 | 73 | 31100
7 | C=CC(=O)N1CC(C#N)[C@@H](Nc2nnc(-c3ccc(C(F)(F)F)cc3)c3ccccc23)C1 (single isomer, unassigned; enantiomer 1) [Example 30, enantiomer 1 of trans-1-acryloyl-4-((4-(4-(trifluoromethyl)phenyl)phthalazin-1-yl)amino)pyrrolidine-3-carbonitrile] | 191 (≈ 83.5 µg/mL) | 143 | 100 | 13000
8 | C=CC(=O)N1CC[C@@H](Nc2ncc(-c3ccc(C(F)(F)F)cn3)c3ncccc23)C1 [Comparative Example A, (R)-1-(3-((8-(5-(trifluoromethyl)pyridin-2-yl)-1,6-naphthyridin-5-yl)amino)pyrrolidin-1-yl)prop-2-en-1-one, reference compound] | – | 592 | – | > 31700
9 | C=CC(=O)N1C[C@H](F)[C@H](Nc2ncc(-c3ccc(C(F)(F)F)cc3)c3ncccc23)C1 [Example 44, 1-((3S,4R)-3-fluoro-4-((8-(4-(trifluoromethyl)phenyl)-1,6-naphthyridin-5-yl)amino)pyrrolidin-1-yl)prop-2-en-1-one] | 3 (≈ 1.29 µg/mL) | 22 | 16 | 18000
10 | C=CC(=O)N1C[C@@H](CN(C)C)[C@H](Nc2nnc(-c3ccc(C(F)(F)F)cc3)c3ccccc23)C1 [Example 46, 1-((3R,4S)-3-((dimethylamino)methyl)-4-((4-(4-(trifluoromethyl)phenyl)phthalazin-1-yl)amino)pyrrolidin-1-yl)prop-2-en-1-one] | – | 283 | 830 | 19400
11 | C=CC(=O)N1C[C@H](F)[C@H](Nc2nnc(-c3ccc(C(F)(F)F)cc3)c3cccnc23)C1 [Example 2, 1-((3S,4R)-3-fluoro-4-((5-(4-(trifluoromethyl)phenyl)pyrido[2,3-d]pyridazin-8-yl)amino)pyrrolidin-1-yl)prop-2-en-1-one] | 188 (≈ 81.1 µg/mL) | 22 | 56 | 12900
12 | C=CC(=O)N1C[C@H](O)[C@H](Nc2ncc(-c3ccc(C(F)(F)F)cn3)c3ncccc23)C1 [Example 35, 1-((3S,4R)-3-hydroxy-4-((8-(5-(trifluoromethyl)pyridin-2-yl)-1,6-naphthyridin-5-yl)amino)pyrrolidin-1-yl)prop-2-en-1-one] | 801 (≈ 344 µg/mL) | 34 | 79 | > 31700
13 | C=CC(=O)N1C[C@H](O)[C@H](Nc2ncc(-c3ccc(C(F)(F)F)cc3)c3ncccc23)C1 [Example 34, 1-((3S,4R)-3-hydroxy-4-((8-(4-(trifluoromethyl)phenyl)-1,6-naphthyridin-5-yl)amino)pyrrolidin-1-yl)prop-2-en-1-one] | 44 (≈ 18.9 µg/mL) | 9 | 17 | > 31700
14 | C=CS(=O)(=O)N1CC[C@H](Nc2nnc(-c3ccc(C(F)(F)F)cc3)c3ccccc23)C1 [Example 21, (S)-4-(4-(trifluoromethyl)phenyl)-N-(1-(vinylsulfonyl)pyrrolidin-3-yl)phthalazin-1-amine] | 34 (≈ 15.2 µg/mL) | 929 | 42 | 15100
15 | C#CC(=O)N1CC[C@H](Nc2nnc(-c3ccc(C(F)(F)F)cc3)c3ccccc23)C1 [Example 19, (S)-1-(3-((4-(4-(trifluoromethyl)phenyl)phthalazin-1-yl)amino)pyrrolidin-1-yl)prop-2-yn-1-one] | 38 (≈ 15.6 µg/mL) | 515 | – | 977
16 | C=CC(=O)N1C[C@H](F)[C@H](Nc2ncc(-c3ccc(C(F)(F)F)cc3)c3nccnc23)C1 [Example 43, 1-((3S,4R)-3-fluoro-4-((8-(4-(trifluoromethyl)phenyl)pyrido[3,4-b]pyrazin-5-yl)amino)pyrrolidin-1-yl)prop-2-en-1-one] | 16 (≈ 6.9 µg/mL) | 11 | 12 | 13300
17 | C=CC(=O)N1C[C@@H](F)[C@H](Nc2nnc(-c3ccc(C(F)(F)F)cc3)c3ccccc23)C1 [Example 11, 1-((3R,4R)-3-fluoro-4-((4-(4-(trifluoromethyl)phenyl)phthalazin-1-yl)amino)pyrrolidin-1-yl)prop-2-en-1-one] | 9 (≈ 3.87 µg/mL) | 156 | 33 | 10200
18 | C=CC(=O)N1C[C@H](C#N)[C@H](Nc2nnc(-c3ccc(C(F)(F)F)cc3)c3ccccc23)C1 (single isomer, unassigned; enantiomer 1) [Example 29, enantiomer 1 of cis-1-acryloyl-4-((4-(4-(trifluoromethyl)phenyl)phthalazin-1-yl)amino)pyrrolidine-3-carbonitrile] | 7 (≈ 3.06 µg/mL) | 94 | – | 22200
